Legend:
Homo sapiens [1] = species: Homo sapiens; assay: Inhibition of LTB4 biosynthesis at 1 uM, in calcium ionophore-stimulated human whole blood leukocyte (HBL) assay.; format: functional
Homo sapiens [2] = species: Homo sapiens; assay: Compound at 10 uM was tested in vitro for the inhibition of LTB4 biosynthesis in calcium ionophore-stimulated human whole blood leukocyte (HBL) assay; format: functional
Rattus norvegicus [3] = assay: Ex vivo inhibitory activity at an peroral dose of 5 mg/Kg against LTB4 biosynthesis in rat blood, after pretreatment period of 6 hr; format: functional; settings: po
[4] = target: T1, Polyunsaturated fatty acid 5-lipoxygenase (Rattus norvegicus) (UniProt P12527); assay: Ex vivo inhibitory activity at an peroral dose of 10 mg/Kg against LTB4 biosynthesis in rat blood, after pretreatment period of 6 hr; format: functional
T1 sequence (whole entry): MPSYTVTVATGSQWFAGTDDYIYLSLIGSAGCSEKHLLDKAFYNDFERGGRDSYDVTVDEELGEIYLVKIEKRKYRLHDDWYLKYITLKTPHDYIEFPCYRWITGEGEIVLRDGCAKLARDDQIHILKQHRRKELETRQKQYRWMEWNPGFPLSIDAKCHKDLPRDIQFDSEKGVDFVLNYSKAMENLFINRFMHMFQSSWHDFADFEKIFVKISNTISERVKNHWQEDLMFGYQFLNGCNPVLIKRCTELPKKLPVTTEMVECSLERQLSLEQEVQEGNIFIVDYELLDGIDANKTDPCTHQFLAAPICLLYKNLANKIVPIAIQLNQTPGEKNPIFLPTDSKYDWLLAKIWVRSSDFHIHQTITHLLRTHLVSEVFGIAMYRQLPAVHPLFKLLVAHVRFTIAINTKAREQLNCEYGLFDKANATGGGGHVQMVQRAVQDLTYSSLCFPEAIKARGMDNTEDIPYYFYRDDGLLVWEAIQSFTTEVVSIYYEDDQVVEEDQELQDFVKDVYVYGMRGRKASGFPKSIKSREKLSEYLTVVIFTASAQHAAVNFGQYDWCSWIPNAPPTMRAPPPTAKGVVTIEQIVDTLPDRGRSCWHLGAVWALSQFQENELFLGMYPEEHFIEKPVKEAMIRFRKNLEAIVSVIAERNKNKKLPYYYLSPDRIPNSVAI

[5] = target: T1, Polyunsaturated fatty acid 5-lipoxygenase (Rattus norvegicus); assay: Ex vivo inhibitory activity at an peroral dose of 10 mg/Kg against LTB4 biosynthesis in rat blood, after pretreatment period of 3h; format: functional
Rattus norvegicus [6] = assay: Activity against LTB4 biosynthesis in the rat RPAR pleurisy model po (25 mg/kg); format: functional
[7] = target: T1, Polyunsaturated fatty acid 5-lipoxygenase (Rattus norvegicus); assay: Activity against LTB4 biosynthesis in the rat RPAR pleurisy model po (10 mg/kg); format: functional, organism-based
Rattus norvegicus [8] = assay: Ex vivo inhibitory activity at an peroral dose of 25 mg/Kg against LTB4 biosynthesis in rat blood, after pretreatment period of 3h; format: functional; settings: po
Rattus norvegicus [9] = species: Rattus norvegicus; assay: Oral effective dose against LTB4 biosynthesis in the rat RPAR pleurisy model; format: functional
Rattus norvegicus [10] = assay: Ex vivo inhibitory activity at an peroral dose of 1 mg/Kg against LTB4 biosynthesis in rat blood, after pretreatment period of 6 hr; format: functional; settings: po
Cavia porcellus [11] = assay: Intravenous effective dose against antigen induced bronchoconstriction in guinea pig; format: functional
Cavia porcellus [12] = species: Cavia porcellus; assay: Oral effective dose against antigen induced bronchoconstriction in the guinea pig; format: functional
Rattus norvegicus [13] = species: Rattus norvegicus; assay: Ex vivo oral effective dose against LTB4 biosynthesis in rat blood, after pretreatment period of 3h; format: functional
Homo sapiens [14] = species: Homo sapiens; assay: In vitro inhibitory concentration against LTB4 biosynthesis in calcium ionophore-stimulated human whole blood leukocyte (HBL) assay; format: functional
Cavia porcellus [15] = assay: Intravenous effective dose against antigen induced bronchoconstriction in the guinea pig; format: functional

Cc1oc(-c2ccccc2)nc1COc1ccc(C(C)N(O)C(N)=O)cc1 (configuration not stated)
inhibition at 1 µM (Homo sapiens [1]): 17%
inhibition at 10 µM (Homo sapiens [2]): 57%

NC(=O)N(O)Cc1ccc(OCCc2coc(-c3ccccc3)n2)cc1
inhibition at 1 µM (Homo sapiens [1]): 47%
inhibition in vivo at 5 mg/kg (Rattus norvegicus [3]): 0%

Cc1oc(-c2ccccc2)nc1COc1ccc(CN(O)C(N)=O)cc1
inhibition at 1 µM (Homo sapiens [1]): 50%
inhibition [4]: 0%
inhibition [5]: 84%
Inhibition (Rattus norvegicus [6]): 69%
inhibition [7]: 36%

NC(=O)N(O)Cc1ccc(OCCc2csc(-c3ccccc3)n2)cc1
inhibition at 1 µM (Homo sapiens [1]): 19%

Cc1oc(-c2ccc(C(F)(F)F)cc2)nc1COc1ccc(CN(O)C(N)=O)cc1
inhibition at 1 µM (Homo sapiens [1]): 34%
inhibition in vivo at 5 mg/kg (Rattus norvegicus [3]): 69%
inhibition [7]: 45%

COc1cc(CN(O)C(N)=O)ccc1OCc1nc(-c2ccccc2)oc1C
inhibition at 1 µM (Homo sapiens [1]): 19%
inhibition at 10 µM (Homo sapiens [2]): 81%

Cc1oc(-c2ccccc2)nc1CCOc1ccc(CN(O)C(N)=O)cc1
inhibition at 1 µM (Homo sapiens [1]): 55%
inhibition [5]: 0%
inhibition [7]: 69%
inhibition in vivo at 25 mg/kg (Rattus norvegicus [8]): 79%

Cc1oc(-c2cccc(F)c2)nc1CCOc1ccc(CN(O)C(N)=O)cc1
inhibition at 1 µM (Homo sapiens [1]): 63%
inhibition [5]: 80%

Cc1oc(-c2ccccc2)nc1CCOc1ccc(CN(O)C(N)=O)cc1F
inhibition at 1 µM (Homo sapiens [1]): 71%
inhibition [5]: 52%
Inhibition (Rattus norvegicus [6]): 58%

Cc1oc(-c2ccc(C(F)(F)F)cc2)nc1CCOc1ccc(CN(O)C(N)=O)cc1
ED50 (Rattus norvegicus [9]): 5 mg/kg
inhibition in vivo at 1 mg/kg (Rattus norvegicus [10]): 57%
inhibition [5]: 67%

Cc1oc(-c2cccc3ccccc23)nc1CCOc1ccc(CN(O)C(N)=O)cc1
inhibition at 1 µM (Homo sapiens [1]): 42%

NC(=O)N(O)Cc1ccc(OCc2csc(-c3ccc(C(F)(F)F)cc3)n2)cc1
inhibition at 1 µM (Homo sapiens [1]): 56%
inhibition [4]: 0%

COc1ccc(-c2nc(CCOc3ccc(CN(O)C(N)=O)cc3)c(C)o2)cc1
inhibition at 1 µM (Homo sapiens [1]): 57%
Inhibition (Rattus norvegicus [6]): 38%
inhibition in vivo at 25 mg/kg (Rattus norvegicus [8]): 32%

Cc1oc(-c2ccc(F)cc2)nc1COc1cccc(CN(O)C(N)=O)c1
inhibition at 1 µM (Homo sapiens [1]): 74%
ED50 (Cavia porcellus [11]): 5 mg/kg
inhibition [7]: 37%

Cc1oc(-c2cccc(C(F)(F)F)c2)nc1COc1cccc(CN(O)C(N)=O)c1
inhibition at 1 µM (Homo sapiens [1]): 51%
inhibition [4]: 0%

NC(=O)N(O)Cc1ccc(OCCc2noc(-c3ccccc3)n2)cc1
inhibition at 1 µM (Homo sapiens [1]): 70%
inhibition in vivo at 5 mg/kg (Rattus norvegicus [3]): 59%
Inhibition (Rattus norvegicus [6]): 19%

Cc1oc(-c2ccc(C(F)(F)F)cc2)nc1COc1cc(F)cc(CN(O)C(N)=O)c1
inhibition at 1 µM (Homo sapiens [1]): 15%
inhibition at 10 µM (Homo sapiens [2]): 85%

Cc1oc(-c2ccccc2F)nc1CCOc1ccc(CN(O)C(N)=O)cc1
inhibition at 1 µM (Homo sapiens [1]): 54%
inhibition [5]: 71%

Cc1oc(-c2ccc(SC(F)(F)F)cc2)nc1CCOc1ccc(CN(O)C(N)=O)cc1
inhibition at 1 µM (Homo sapiens [1]): 50%
inhibition [4]: 0%

NC(=O)N(O)Cc1ccc(OCc2coc(-c3ccccc3)n2)cc1
inhibition at 1 µM (Homo sapiens [1]): 58%
inhibition in vivo at 5 mg/kg (Rattus norvegicus [3]): 60%
inhibition [7]: 60%

COc1cc(CN(O)C(N)=O)cc(OCc2nc(-c3ccc(C(F)(F)F)cc3)oc2C)c1
inhibition at 1 µM (Homo sapiens [1]): 0%
inhibition at 10 µM (Homo sapiens [2]): 59%

Cc1oc(-c2ccc(F)cc2)nc1CCOc1ccc(CN(O)C(N)=O)cc1
inhibition at 1 µM (Homo sapiens [1]): 70%
inhibition [5]: 66%

Cc1oc(-c2ccc(C(F)(F)F)cc2)nc1CCOc1ccc(CN(O)C(N)=O)cc1F
inhibition at 1 µM (Homo sapiens [1]): 36%

Cc1oc(-c2ccccc2)nc1COc1cccc(CN(O)C(N)=O)c1
inhibition at 1 µM (Homo sapiens [1]): 52%
inhibition [4]: 0%
Inhibition (Rattus norvegicus [6]): 79%
inhibition [7]: 33%
inhibition in vivo at 25 mg/kg (Rattus norvegicus [8]): 78%

NC(=O)N(O)Cc1cccc(OCc2csc(-c3ccc(Cl)cc3)n2)c1
inhibition at 1 µM (Homo sapiens [1]): 68%
inhibition [4]: 63%
inhibition [7]: 0%

COc1ccc(-c2nc(COc3cccc(CN(O)C(N)=O)c3)cs2)cc1
inhibition at 1 µM (Homo sapiens [1]): 50%
inhibition [4]: 0%

Cc1oc(-c2ccccc2)nc1COc1cccc(C(C)N(O)C(N)=O)c1 (configuration not stated)
inhibition at 1 µM (Homo sapiens [1]): 10%
inhibition at 10 µM (Homo sapiens [2]): 80%

NC(=S)N(O)Cc1ccc(OCc2csc(-c3ccc(Cl)cc3)n2)cc1
inhibition at 1 µM (Homo sapiens [1]): 57%
inhibition in vivo at 5 mg/kg (Rattus norvegicus [3]): 0%

Cc1oc(-c2ccco2)nc1CCOc1ccc(CN(O)C(N)=O)cc1
inhibition at 1 µM (Homo sapiens [1]): 64%
inhibition [5]: 41%

Cc1oc(-c2ccccc2)nc1COc1ccc(CN(O)C(N)=O)cc1F
inhibition at 1 µM (Homo sapiens [1]): 47%
inhibition [5]: 66%
Inhibition (Rattus norvegicus [6]): 27%

NC(=O)N(O)Cc1ccc(OCc2csc(-c3ccc(Cl)cc3)n2)cc1
inhibition at 1 µM (Homo sapiens [1]): 71%
inhibition [4]: 0%

CC(c1cc2ccccc2s1)N(O)C(N)=O (configuration not stated) [ZILEUTON]
ED50 (Rattus norvegicus [9]): 7.8 mg/kg
ED50 (Cavia porcellus [12]): 46 mg/kg
ED50 (Rattus norvegicus [13]): 10.2 mg/kg
IC50 (Homo sapiens [14]): 3000 nM
ED50 (Cavia porcellus [15]): 19 mg/kg

Cc1oc(-c2ccc(Cl)cc2)nc1COc1cccc(CN(O)C(N)=O)c1
inhibition at 1 µM (Homo sapiens [1]): 77%
inhibition [4]: 38%
inhibition [7]: 47%

NC(=O)N(O)Cc1cccc(OCCc2csc(-c3ccc(C(F)(F)F)cc3)n2)c1
inhibition at 1 µM (Homo sapiens [1]): 30%
inhibition [4]: 0%

Cc1oc(-c2cc(C(F)(F)F)cc(C(F)(F)F)c2)nc1COc1cccc(CN(O)C(N)=O)c1
inhibition at 1 µM (Homo sapiens [1]): 15%
inhibition at 10 µM (Homo sapiens [2]): 57%

Cc1oc(-c2ccccc2)nc1CCOc1ccc(C(C)N(O)C(N)=O)cc1 (configuration not stated)
inhibition at 1 µM (Homo sapiens [1]): 0%
inhibition at 10 µM (Homo sapiens [2]): 60%
inhibition in vivo at 25 mg/kg (Rattus norvegicus [8]): 57%

Cc1oc(-c2ccccc2)nc1CCOc1cccc(C(C)N(O)C(N)=O)c1 (configuration not stated)
inhibition at 1 µM (Homo sapiens [1]): 34%

Cc1oc(-c2cccs2)nc1CCOc1ccc(CN(O)C(N)=O)cc1
inhibition at 1 µM (Homo sapiens [1]): 64%
inhibition [5]: 24%

Cc1ccc(-c2nc(CCOc3ccc(CN(O)C(N)=O)cc3)c(C)o2)cc1
inhibition at 1 µM (Homo sapiens [1]): 40%
inhibition in vivo at 5 mg/kg (Rattus norvegicus [3]): 0%
Inhibition (Rattus norvegicus [6]): 48%

NC(=O)N(O)Cc1ccc(OCc2csc(-c3ccccc3)n2)cc1
inhibition at 1 µM (Homo sapiens [1]): 44%
inhibition [4]: 67%

NC(=S)N(O)Cc1cccc(OCc2coc(-c3ccc(F)cc3)n2)c1
inhibition at 1 µM (Homo sapiens [1]): 61%
inhibition [4]: 0%

Cc1oc(-c2ccccc2)nc1CCOc1cccc(CN(O)C(N)=O)c1
inhibition at 1 µM (Homo sapiens [1]): 51%
inhibition [5]: 0%

NC(=O)N(O)Cc1ccc(OCc2coc(-c3ccc(C(F)(F)F)cc3)n2)cc1
inhibition at 1 µM (Homo sapiens [1]): 32%
inhibition [4]: 68%

Cc1oc(-c2ccccc2)nc1COc1ccc(CN(O)C(N)=O)cc1Cl
inhibition at 1 µM (Homo sapiens [1]): 31%
inhibition [5]: 69%

CCCCCCc1nc(CCOc2ccc(CN(O)C(N)=O)cc2)c(C)o1
inhibition at 1 µM (Homo sapiens [1]): 44%

NC(=O)N(O)Cc1ccc(OCCc2csc(-c3ccc(C(F)(F)F)cc3)n2)cc1
inhibition at 1 µM (Homo sapiens [1]): 57%
inhibition in vivo at 5 mg/kg (Rattus norvegicus [3]): 0%

Cc1oc(-c2ccc(C(F)(F)F)cc2)nc1COc1cccc(CN(O)C(N)=O)c1
inhibition at 1 µM (Homo sapiens [1]): 48%
inhibition in vivo at 5 mg/kg (Rattus norvegicus [3]): 55%
inhibition [7]: 59%

Cc1oc(-c2ccccc2)nc1COc1cc(F)cc(CN(O)C(N)=O)c1
inhibition at 1 µM (Homo sapiens [1]): 70%
inhibition in vivo at 5 mg/kg (Rattus norvegicus [3]): 52%
inhibition [7]: 16%

COc1ccc(-c2nc(COc3ccc(CN(O)C(N)=O)cc3)cs2)cc1
inhibition at 1 µM (Homo sapiens [1]): 56%
inhibition [4]: 69%

NC(=O)N(O)Cc1cccc(OCc2csc(-c3ccccc3)n2)c1
inhibition at 1 µM (Homo sapiens [1]): 66%
inhibition [4]: 80%
ED50 (Cavia porcellus [15]): 6 mg/kg
inhibition [7]: 40%

Reference: ChEMBL document CHEMBL1129782, “Azole phenoxy hydroxyureas as selective and orally active inhibitors of 5-lipoxygenase” (J Med Chem, 1996)
